BindingDB's records for doi:10.1016/j.bmcl.2006.04.011 (Ambrilia Biopharma, 2006)

The compounds below were run against T1, Dimer of Gag-Pol polyprotein [501-599] (Human immunodeficiency virus 1, UniProt P03367) (assay: Protease Inhibition Assay).
T1 construct: 501-599
Procedure: HIV-1 protease activity was measured by a continuous fluorometric assay. The proteolytic activity can be monitored by the increase in fluorescence intensity, and the protease products were analyzed by HPLC. IC50 values were determined from a dose-response curve, whereas Ki values were obtained by fitting initial rates to a tight-binding inhibition equation.
CC(C)CN(C(CO)CCCCNC(=O)[C@@H](N)C(c1ccccc1)c1ccccc1)S(=O)(=O)c1ccc(N)cc1 (stereo partly drawn) [(2S)-2-amino-N-[(5R)-5-[(4-aminobenzene)(2-methylpropyl)sulfonamido]-6-hydroxyhexyl]-3,3-diphenylpropanamide] showed an IC50 of 0.5 nM and a Ki of 0.56 nM. CC(C)CN(C(CO)CCCCNC(=O)[C@@H](NC(=O)C1CCCCC1)C(c1ccccc1)c1ccccc1)S(=O)(=O)c1ccc(N)cc1 (stereo partly drawn) [(2S)-N-[(5R)-5-[(4-aminobenzene)(2-methylpropyl)sulfonamido]-6-hydroxyhexyl]-2-(cyclohexylformamido)-3,3-diphenylpropanamide] was tested, and the IC50 was under 3.8 nM. In the case of CC(C)CN(C(CO)CCCCNC(=O)[C@@H](NC(=O)C1CC1)C(c1ccccc1)c1ccccc1)S(=O)(=O)c1ccc(N)cc1 (stereo partly drawn) [(2S)-N-[(5R)-5-[(4-aminobenzene)(2-methylpropyl)sulfonamido]-6-hydroxyhexyl]-2-(cyclopropylformamido)-3,3-diphenylpropanamide], the IC50 is reported as 0.43 nM and the Ki is reported as 0.45 nM. Compound CC(C)CN(C(CO)CCCCNC(=O)[C@@H](NC(=O)N1CCOCC1)C(c1ccccc1)c1ccccc1)S(=O)(=O)c1ccc(N)cc1 (stereo partly drawn) [(2S)-N-[(5R)-5-[(4-aminobenzene)(2-methylpropyl)sulfonamido]-6-hydroxyhexyl]-2-(morpholin-4-ylcarbonylamino)-3,3-diphenylpropanamide] has an IC50 of 0.51 nM and a Ki of 0.55 nM. In the case of CC(C)CN(C(CO)CCCCNC(=O)[C@@H](NC(=O)c1ccccc1O)C(c1ccccc1)c1ccccc1)S(=O)(=O)c1ccc(N)cc1 (stereo partly drawn) [(2S)-N-[(5R)-5-[(4-aminobenzene)(2-methylpropyl)sulfonamido]-6-hydroxyhexyl]-2-[(2-hydroxyphenyl)formamido]-3,3-diphenylpropanamide], the IC50 is reported as 0.63 nM and the Ki is reported as 0.58 nM. In the case of Cc1ncccc1C(=O)N[C@H](C(=O)NCCCCC(CO)N(CC(C)C)S(=O)(=O)c1ccc(N)cc1)C(c1ccccc1)c1ccccc1 (stereo partly drawn) [(2S)-N-[(5R)-5-[(4-aminobenzene)(2-methylpropyl)sulfonamido]-6-hydroxyhexyl]-2-[(2-methylpyridin-3-yl)formamido]-3,3-diphenylpropanamide], the IC50 is reported as 0.4 nM and the Ki is reported as 0.4 nM. For CC(C)CN(C(CO)CCCCNC(=O)[C@@H](NC(=O)c1ccc([N+](=O)[O-])c(O)c1)C(c1ccccc1)c1ccccc1)S(=O)(=O)c1ccc(N)cc1 (stereo partly drawn) [(2S)-N-[(5R)-5-[(4-aminobenzene)(2-methylpropyl)sulfonamido]-6-hydroxyhexyl]-2-[(3-hydroxy-4-nitrophenyl)formamido]-3,3-diphenylpropanamide], the IC50 was 0.33 nM and the Ki was 0.33 nM. With CC(C)CN(C(CO)CCCCNC(=O)[C@@H](NC(=O)c1cccc(O)c1)C(c1ccccc1)c1ccccc1)S(=O)(=O)c1ccc(N)cc1 (stereo partly drawn) [(2S)-N-[(5R)-5-[(4-aminobenzene)(2-methylpropyl)sulfonamido]-6-hydroxyhexyl]-2-[(3-hydroxyphenyl)formamido]-3,3-diphenylpropanamide] the IC50 was 0.4 nM and the Ki was 0.4 nM. In the case of CC(C)CN(C(CO)CCCCNC(=O)[C@@H](NC(=O)c1ncccc1O)C(c1ccccc1)c1ccccc1)S(=O)(=O)c1ccc(N)cc1 (stereo partly drawn) [(2S)-N-[(5R)-5-[(4-aminobenzene)(2-methylpropyl)sulfonamido]-6-hydroxyhexyl]-2-[(3-hydroxypyridin-2-yl)formamido]-3,3-diphenylpropanamide], the IC50 is reported as 0.9 nM and the Ki is reported as 0.7 nM. For COc1cc(C(=O)N[C@H](C(=O)NCCCCC(CO)N(CC(C)C)S(=O)(=O)c2ccc(N)cc2)C(c2ccccc2)c2ccccc2)ccc1O (stereo partly drawn) [(2S)-N-[(5R)-5-[(4-aminobenzene)(2-methylpropyl)sulfonamido]-6-hydroxyhexyl]-2-[(4-hydroxy-3-methoxyphenyl)formamido]-3,3-diphenylpropanamide], the IC50 was 0.5 nM and the Ki was 0.45 nM. With CC(C)CN(C(CO)CCCCNC(=O)[C@@H](NC(=O)c1ccc(O)c([N+](=O)[O-])c1)C(c1ccccc1)c1ccccc1)S(=O)(=O)c1ccc(N)cc1 (stereo partly drawn) [(2S)-N-[(5R)-5-[(4-aminobenzene)(2-methylpropyl)sulfonamido]-6-hydroxyhexyl]-2-[(4-hydroxy-3-nitrophenyl)formamido]-3,3-diphenylpropanamide] the IC50 was 0.56 nM and the Ki was 0.48 nM. Work on CC(C)CN(C(CO)CCCCNC(=O)[C@@H](NC(=O)c1ccc(O)cc1)C(c1ccccc1)c1ccccc1)S(=O)(=O)c1ccc(N)cc1 (stereo partly drawn) [(2S)-N-[(5R)-5-[(4-aminobenzene)(2-methylpropyl)sulfonamido]-6-hydroxyhexyl]-2-[(4-hydroxyphenyl)formamido]-3,3-diphenylpropanamide] yielded an IC50 of 0.53 nM and a Ki of 0.47 nM. In the case of CC(C)CN(C(CO)CCCCNC(=O)[C@@H](NC(=O)c1ccc(N)nc1)C(c1ccccc1)c1ccccc1)S(=O)(=O)c1ccc(N)cc1 (stereo partly drawn) [(2S)-N-[(5R)-5-[(4-aminobenzene)(2-methylpropyl)sulfonamido]-6-hydroxyhexyl]-2-[(6-aminopyridin-3-yl)formamido]-3,3-diphenylpropanamide], the IC50 is reported as 0.4 nM and the Ki is reported as 0.5 nM. Work on CC(C)CN(C(CO)CCCCNC(=O)[C@@H](NC(=O)c1ccc(=O)[nH]c1)C(c1ccccc1)c1ccccc1)S(=O)(=O)c1ccc(N)cc1 (stereo partly drawn) [(2S)-N-[(5R)-5-[(4-aminobenzene)(2-methylpropyl)sulfonamido]-6-hydroxyhexyl]-2-[(6-hydroxypyridin-3-yl)formamido]-3,3-diphenylpropanamide] yielded an IC50 of 0.5 nM and a Ki of 0.4 nM. Work on Cc1ccc(C(=O)N[C@H](C(=O)NCCCCC(CO)N(CC(C)C)S(=O)(=O)c2ccc(N)cc2)C(c2ccccc2)c2ccccc2)cn1 (stereo partly drawn) [(2S)-N-[(5R)-5-[(4-aminobenzene)(2-methylpropyl)sulfonamido]-6-hydroxyhexyl]-2-[(6-methylpyridin-3-yl)formamido]-3,3-diphenylpropanamide] yielded an IC50 of 0.4 nM and a Ki of 0.5 nM. CC(C)CN(C(CO)CCCCNC(=O)[C@@H](NC(=O)N(C)C)C(c1ccccc1)c1ccccc1)S(=O)(=O)c1ccc(N)cc1 (stereo partly drawn) [(2S)-N-[(5R)-5-[(4-aminobenzene)(2-methylpropyl)sulfonamido]-6-hydroxyhexyl]-2-[(dimethylcarbamoyl)amino]-3,3-diphenylpropanamide] showed an IC50 of 0.44 nM and a Ki of 0.58 nM. Work on CC(=O)N[C@H](C(=O)NCCCCC(CO)N(CC(C)C)S(=O)(=O)c1ccc(N)cc1)C(c1ccccc1)c1ccccc1 (stereo partly drawn) [(2S)-N-[(5R)-5-[(4-aminobenzene)(2-methylpropyl)sulfonamido]-6-hydroxyhexyl]-2-acetamido-3,3-diphenylpropanamide] yielded an IC50 of 1.5 nM. In the case of CC(C)CN(C(CO)CCCCNC(=O)[C@@H](NC(=O)c1ccc[nH]1)C(c1ccccc1)c1ccccc1)S(=O)(=O)c1ccc(N)cc1 (stereo partly drawn) [(2S)-N-[(5R)-5-[(4-aminobenzene)(2-methylpropyl)sulfonamido]-6-hydroxyhexyl]-3,3-diphenyl-2-(1H-pyrrol-2-ylformamido)propanamide], the IC50 is reported as 0.43 nM and the Ki is reported as 0.47 nM. CC(C)CN(C(CO)CCCCNC(=O)[C@@H](NC(=O)c1ccccn1)C(c1ccccc1)c1ccccc1)S(=O)(=O)c1ccc(N)cc1 (stereo partly drawn) [(2S)-N-[(5R)-5-[(4-aminobenzene)(2-methylpropyl)sulfonamido]-6-hydroxyhexyl]-3,3-diphenyl-2-(pyridin-2-ylformamido)propanamide] was tested, and the IC50 was 0.46 nM and the Ki was 0.44 nM.
